# Reference: article PMC11555231 (Nature Communications, 2024)
# Bridge positions count the residues as written; N and C are the ends. Square brackets hold non-standard residues; d marks the D form. Peptide text beside a SMILES is read from it.
# Legend:
# [1] = test system: HaLo-GFP-mito HeLa cells; assay: Chloroalkane penetration assay (CAPA); format: in vitro ADME; conditions: CAPA, chloroalkane-tagged peptide, 4 h in Opti-MEM, 37 °C, chase HaLo-Tag TMR ligand 5 µM 15 min, flow cytometry; mean ± SEM of three independent experiments
# Protocol: Following the addition of chloroacetyl-NHS to the N-terminal amino group, Cys(mmt) was selectively deprotected using 1% TFA, 5% triisopropylsilane in DCM (30 min, RT). Peptides were then cyclised on resin using 2% diisopropylethylamine in DMF overnight. Following cyclisation, Lys(ivDde) was deprotected using 2% hydrazine in DMF. The resin was then washed (3 x DCM, 3 x DMF) before on-resin coupling of chloroalkane carboxylic acid was performed on the lysine side chain using Hexafluorophosphate Azabenzotriazole Tetramethyl Uronium / diisopropylethylamine in DMF for 2 h. Global deprotection and purification were then carried out as described above. Chloroalkane carboxylate was synthesised as previously described.
# CAPA assays were performed following the protocol published in ref. [51]. In brief, 40,000 HaLo- GFP-mito HeLa cells were seeded in a 96-well plate. Twenty-four hours later, cells were treated with different concentrations of chloroalkane-tagged peptides (100 µM to 200 nM for PADI4_3 and PADI4_3i and 50 µM to 100 nM for PADI4_11 and PADI4_11i) for 4 h in Opti-MEM. Media containing peptides was then removed, and cells were incubated with Opti-MEM (Gibco) for 15 min. After that time, the wash was removed, and cells were chased with HaLo-Tag TMR ligand (5 µM, Promega) in Opti-MEM for 15 min. The ligand was then removed, and cells were incubated with Opti-MEM for 30 min. Cells were then trypsinised, resuspended in phosphate-buffered saline (PBS) with 0.5% FBS and analysed using a benchtop flow cytometer (MACSQuant® VYB Flow cytometer Milteny Biotec). For each well, 10000 GFP positive single cells were analysed (gating workflow shown in Supplementary Fig. 18), and TMR mean fluorescence was normalised against a positive control (cells treated with HaLo-Tag TMR ligand but no peptide) and a negative control (non-treated cells). Analysis was performed using FlowJo (LCC) software and Prism GraphPad (Dotmatics). Data were presented as the average ± standard error of three independent replicates.
# [2] = test system: human neutrophils; assay: Time-lapse imaging and NET quantification (NETosis); format: cell-based; conditions: 50 µM peptide, 5 µM Ca-Ionophore, 12 h
# Protocol: Peripheral venous blood was isolated from consenting healthy adult volunteers in heparin tubes as previously described. Briefly, blood samples were on Histopaque 1119 (Sigma-Aldrich) and then centrifuged for 20 min at 800 × g. The plasma was collected and centrifuged for a second time for 20 min at 800 × g. The neutrophil layer was collected and washed in Hyclone Hank’s Balanced Salt Solution (HBSS) -Ca, -Mg, -Phenol red (GE Healthcare) supplemented with 10 mM HEPES (Invitrogen) 0.1% FBS and further purified with a discontinuous Percoll (GE Healthcare) gradient consisting of layers with densities of 85, 80, 75, 70 and 65% and centrifuged for 20 min at 800 × g. Neutrophil-enriched layers were then collected and washed, and neutrophil purity was assessed using flow cytometry.
# About 5 × 10^4 human neutrophils were seeded in a black 96-well plate (PerkinElmer) in HyClone HBSS +Ca, +Mg, - Phenol red (GE Healthcare) containing 10 mM HEPES (Invitrogen). Cells were pre-incubated with the corresponding peptide for 60 min prior to the start of the experiment. DNA of live cells was stained with 4 µg/mL Hoechst (membrane permeable; Thermo Scientific) and DNA from dead cells with 0.2 µM Sytox-green (membrane impermeable; Invitrogen). Cells were stimulated with 100 nM PMA, 5 µM Ca-Ionophore or 0.1 mg/mL cholesterol crystals at the start of the microscope acquisition. Plates stimulated with cholesterol crystals were centrifuged at 300×g for 5 min at RT immediately prior to microscope acquisition. The cells were imaged on an inverted Nikon wide-field microscope system at 37 °C and CO2 (5%). Four fields of view were acquired per well every 15 mins for 10–15 h using a 40x objective. NETs were differentiated from necrotic cells by the size of the sytox signal using FIJI[86]. […] [85]. Area measurements were distributed into bins of increasing area sizes and plotted as a percentage of the total number of Sytox-green positive (dead) cells.
# [3] = biological target: T1, hPADI4 (Homo sapiens, UniProt Q9UM07); assay: COLDER assay, inhibition of PADI4 at 10 mM CaCl2 (substrate BAEE); format: biochemical; conditions: COLDER, 10 mM CaCl2, peptide 10–0.0003 µM
# T1 construct: PADI4 (residues 1–663); Avi-Tag (unbiotinylated); made in house; host or cells: E. coli BL21(DE3) without BirA
# Protocol: PADI4 activity was assessed using the COLDER assay[43] that measures the formation of urea-containing compounds (e.g. citrulline). The reaction was carried out in a 96-well plate with a final volume of 50 µl. His-PADI4 (50 nM) was incubated with different concentrations of peptides (100 µM to 0.3 nM) in the presence of CaCl2 (from 10 mM to 0.001 mM as specified) for 10 min. The reaction was started by the addition of 10 mM N^α-Benzoyl-L-arginine ethyl ester hydrochloride (BAEE, Merck). After 30 min, the reaction was quenched with EDTA (50 mM final concentration). For colour development, 200 µl of COLDER solution, consisting of 1 volume of solution A (80 mM diacetyl monoxime/2,3-butanedione monoxime (Merck) and 2 mM thiosemicarbazide (Acros Organics)) and 3 volumes of solution B (3 M H3PO4, 6 M H2SO4 and 2 mM NH4Fe(SO4)2) were added to each well and the mixture was heated at 95 °C for 15 min. After cooling to RT, absorbance at 540 nm was measured, and citrulline concentration was determined using a standard curve of citrulline standards. All studies were performed within the linear range of PADI4 activity, and data analysis was performed using Prism GraphPad (Dotmatics). Data are presented as the average ± standard error of the mean from at least two independent replicates.
# T1 sequence (Q9UM07 whole entry, the tested form may be a part): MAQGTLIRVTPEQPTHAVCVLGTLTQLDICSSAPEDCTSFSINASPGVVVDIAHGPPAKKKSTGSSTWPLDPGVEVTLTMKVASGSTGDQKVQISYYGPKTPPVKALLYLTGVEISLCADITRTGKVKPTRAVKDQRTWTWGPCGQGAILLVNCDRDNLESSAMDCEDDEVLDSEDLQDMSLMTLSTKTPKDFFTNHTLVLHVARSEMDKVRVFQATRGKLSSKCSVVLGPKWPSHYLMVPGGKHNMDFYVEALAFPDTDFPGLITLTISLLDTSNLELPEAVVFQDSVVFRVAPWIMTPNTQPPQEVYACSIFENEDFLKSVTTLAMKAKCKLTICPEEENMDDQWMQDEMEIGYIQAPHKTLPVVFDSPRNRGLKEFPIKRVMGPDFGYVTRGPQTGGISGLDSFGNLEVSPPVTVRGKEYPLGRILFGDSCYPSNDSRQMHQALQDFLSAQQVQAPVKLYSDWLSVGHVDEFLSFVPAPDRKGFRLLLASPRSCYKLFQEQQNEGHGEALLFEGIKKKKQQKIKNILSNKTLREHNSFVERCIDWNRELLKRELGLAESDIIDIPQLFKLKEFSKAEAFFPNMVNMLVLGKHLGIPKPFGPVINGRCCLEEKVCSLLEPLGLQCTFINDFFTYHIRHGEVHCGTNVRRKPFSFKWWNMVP
compound,measurement,setting,value
N=C(N)NCCC[C@@H]1NC(=O)[C@H](CC(=O)O)NC(=O)[C@@H](Cc2ccc(O)cc2)NC(=O)CSC[C@@H](C(=O)NCC(N)=O)NC(=O)[C@H](Cc2ccc(O)cc2)NC(=O)[C@H](CCCCN)NC(=O)[C@@H]2CCCN2C(=O)[C@H](Cc2c[nH]cn2)NC(=O)[C@H](CCCNC(=N)N)NC(=O)[C@H](Cc2ccc(O)cc2)NC(=O)[C@H](Cc2c[nH]cn2)NC(=O)[C@H](Cc2c[nH]cn2)NC1=O [PADI4_3i] ({CH2CO}-[dY]DRHHYRHPKYCG-NH2; thioether N-12),CP50,[1],2.0 ± 0.8 µM
same,NETosis induced by calcium ionophore,[2],neither response was affected
same,PADI4 inhibition (in words),[3],did not bind or inhibit PADI4
